The results in this text go back to ChEMBL document CHEMBL3045266, “Lytic activity of l-menthol derivatives against the snow blight disease fungus, Micronectriella nivalis” (2003).

Activity calls are given as the source filed them. The calls are words filed in the database; no cut-off is given here.

For assay [1], the system named is Monographella nivalis var. nivalis. The assay can be described thus: Lytic activity against Monographella nivalis var. nivalis MAFF 305031 assessed as hyphal lysis at 0.025 to 0.2 mg/ml after 48 hr by cotton blue staining. The assay is classed as functional, organism-based.
Assay [2] shares this test system. Briefly: Lytic activity against Monographella nivalis var. nivalis MAFF 305031 assessed as hyphal lysis at 0.2 mg/ml after 48 hr by cotton blue staining. The assay is classed as functional.
Assay [3] shares this test system. The assay can be described thus: Lytic activity against Monographella nivalis var. nivalis MAFF 305031 assessed as hyphal lysis after 48 hr by cotton blue staining. The assay is classed as functional, organism-based.
The test system is the same in assay [4]. Briefly: Lytic activity against Monographella nivalis var. nivalis MAFF 305031 assessed as hyphal lysis at 0.05 mg/ml after 48 hr by cotton blue staining. The assay is classed as functional.

Take `CC(=O)O[C@@H]1C[C@@](C)(O)CC[C@H]1C(C)C` [(-)-(1S,3R,4S)-1-HYDROXYMENTHYL 3-MONOACETATE]: in assay [1], the result was Active. Besides, the Activity in assay [2] is recorded as 66%.
For `CC(=O)O[C@H]1C[C@@H](C(C)C)[C@H](OC(C)=O)C[C@@H]1C` the same measures were “Active” and 91.5%.
Take `CC(C)[C@@H]1CC[C@@H](C)C[C@H]1O` [LEVOMENTHOL]: in assay [2], the Activity was found to be 45.7%.
On to `CC(C)[C@@H]1CC[C@](C)(O)C[C@H]1O` [(-)-(1S,3R,4S)-1-HYDROXYMENTHOL], for which the Activity result in assay [3] was “Dose-dependent effect”; in assay [2], 63.9%.
For `CC(=O)O[C@@H]1C[C@H](C)CC[C@H]1C(C)C`, the result in assay [1] was Active. In addition, the Activity in assay [2] amounted to 51.2%.
With `CC(C)[C@@H]1C[C@H](O)[C@@H](C)C[C@H]1O` [(-)-(1S,3R,4S,6S)-6-HYDROXYMENTHOL], the Activity result is “Dose-dependent effect” in assay [3], 57.1% in assay [4] and 85% in assay [2].
Consider `C[C@H]1C[C@@H](O)[C@H](C(C)(C)O)C[C@@H]1O`, for which the Activity entry was “Dose-dependent effect” in assay [3], 68.1% in assay [4] and 81.9% in assay [2].
Take `CC(=O)O[C@H]1C[C@@H](C(C)(C)O)[C@H](OC(C)=O)C[C@@H]1C`: the result in assay [1] was Active. Further, in assay [2], the Activity came out at 95.2%.
